The source of these data is patent US12522582B2 (Gilead Sciences, Inc., priority 2022, dated 2026).

The pEC50 is the negative decadic logarithm of the EC50, by convention in mol/L. Broadly, the pIC50 is the IC50 on a negative log10 scale, so that one unit is a factor of ten. What is called CC50 is the concentration that lowers cell viability or growth by half.

The test system of series [1] is HSV-2 virus (MS strain). As to the kind of experiment: HSV-2 Cellomics Assay (immunofluorescence of HSV protein gD in infected ARPE-19 cells). The note with it: Human alphaherpesvirus 2, ARPE-19, 16 h.
The target in a further series is hCAII (Homo sapiens (Human), UniProt P00918). Nature of the series: Carbonic Anhydrase (Esterase) Biochemical Assay, hCAII.
Series [2] concerns HSV-2 virus (MS strain). As to the kind of experiment: HSV qPCR Assay (HSV replication in ARPE-19 cells). Conditions: Human alphaherpesvirus 2, ARPE-19, read-out: EC50-HSV2-qPCR. For orientation: In qPCR the cycle at which signal appears reflects the starting amount.
Experimental: HSV replication in the presence or absence of compounds was measured by qPCR according to the following procedure: DMSO stock compound solutions (1-10 mM) were serially diluted (2.5-fold) in DMSO in clear round bottom 96-well plates. Compounds were then diluted 1:20 in assay medium (DMEM/F12 Glutamax+2% Fetal bovine serum+1% Penicillin Streptomycin) and 10 μL of these dilutions were added to 96-well tissue culture plates for final starting concentrations between 0.5 and 5 μM.
Cells were resuspended in assay medium, counted, and cell density was adjusted to 2.8E+05 cells/ml with assay medium. […] 90 μL of the infection suspension (25,000 cells) were added to assay plates in which compounds were already added. After an overnight incubation at 37° C., cell culture medium was removed, and cell lysis was performed using the prepGEM Universal kit (MicroGEM cat #PUN1000). Specifically, 100 μL of prepGEM master mix (94.75 μL Water, 5 μL buffer, 0.25 μL enzyme stock) were added to each well and plates were incubated at room temperature for 15 minutes, with the 5 last minutes on a plate shaker. The cell lysates were then transferred to a 96-well PCR compatible microplate (Applied Biosystems, Cat #N8010560). Plates were sealed with a heat resistant plastic sealer and heated on a thermal cycler using the following conditions: 75° C. for 10 min, 95° C. for 5 minutes. Finally, plates were cooled down to room temperature with light shaking before proceeding to the qPCR setup.
Plates were sealed with a clear sealer, spun down, and qPCR reactions were performed in an Applied Biosystems Quantstudio 7 Flex instrument using the following conditions: 95° C. for 2 minutes, then 40 cycles alternating between 95° C. for 5 seconds and 60° C. for 30 seconds.
Analysis was performed using dCT method where dCT=CT (test)−CT (DMSO). Fold change was calculated using the 2^^dCT equation. This fold change was then converted to percentage relative to DMSO control (no drug). EC50s were determined by non-linear regression analysis using GraphPad Prism software.
The test system of series [3] is human cryopreserved hepatocytes. As to the kind of experiment: Stability Assay in Cryopreserved Hepatocytes (human). The note with it: 1 μM, calculated from half-life using the well-stirred model. In kind it is in vitro ADME. As for the experimental part:
Test compound was incubated at 1 μM with either rat or human cryopreserved hepatocytes (BioIVT, Westbury, NY) up to 6 hours at 37° C. in a 24-well plate format (1×10^6 cells/mL per well). At specified time points, samples were transferred to a 96-well plate and quenched with 2 volumes of a solution containing 90% acetonitrile 10% methanol 0.1% formic acid and internal standard. Sample plate was centrifuged at 3200 rpm for 15 min and supernatants transferred to a new plate containing half volume of water. The resulting solution was analyzed by LC-MS/MS. Data (analyte to internal standard peak area ratio) was plotted on a semi-log scale and fitted using an exponential fit. Assuming first order kinetics, the half-life (t1/2) and rate of metabolism were determined. Predicted hepatic clearance was calculated from the half-life using the well-stirred model.

The target of a further series is hCAI (Homo sapiens (Human), UniProt P00915). As to the kind of experiment: Carbonic Anhydrase (Esterase) Biochemical Assay, hCAI.
The nature of series [4]: MT-4 CC50 Assay (CellTiter Glo). In kind it is cell-based. The note with it: human, MT-4 cells, luminescence, read-out: CC50-MT4. On the procedure: Compounds were tested in 384-well plates: 18 compounds in duplex. Compounds were diluted in 7 points, 3-fold with DMSO by Bravo. Assay plate, which contains 20 uL medium with compounds, was seeded 2000 MT-4 cells in 20 uL/well by Multi-drop to start the assay. The plate was incubated at 37° C. for 5 days. On 6th day, the CellTiter Glo 40 uL was added in each well. Luminescence was read by Victor II.

Where [5] appears, read: read-out: IC50-hCAII, 4-nitrophenyl acetate hydrolysis, 60 min.
[6] abbreviates: read-out: EC50-HSV2-10% Human Serum.
The mark [7] stands for this setting: read-out: IC50-hCAI, 4-nitrophenyl acetate hydrolysis, 60 min.

Molecules are shown by their SMILES. pEC50, pIC50: −log10 of the molar value. Like-named read-outs stand apart in the source and are kept apart here.

Sequence of hCAI (P00915 whole entry): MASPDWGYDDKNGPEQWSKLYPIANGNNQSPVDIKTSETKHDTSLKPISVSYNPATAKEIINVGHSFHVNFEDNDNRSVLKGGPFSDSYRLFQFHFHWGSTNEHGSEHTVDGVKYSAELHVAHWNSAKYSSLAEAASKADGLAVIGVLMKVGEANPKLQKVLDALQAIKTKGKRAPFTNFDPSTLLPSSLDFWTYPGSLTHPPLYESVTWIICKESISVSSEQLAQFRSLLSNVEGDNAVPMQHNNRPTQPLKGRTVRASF
Experimental for hCAII: 10-dose, 3-fold serial dilutions of compounds were prepared at starting concentrations of 10 mM in 100% DMSO. […] Final starting concentration in the assay was 50 μM. DMSO (no compound) and acetazolamide were included on each microplate as negative and positive controls, respectively.
Following a preincubation at room temperature for 15 minutes, 20 μl of a 4 mM solution of 4NPA substrate (Sigma cat #N8130) in assay buffer were added to start the reaction.

For the compound `NS(=O)(=O)c1ccc2c(c1)N(C(=O)C1Cc3ccc(-c4cccc(F)n4)cc3C1)CC2` (stereo not shown) [Example 75], the negative logarithm of the EC50 (pEC50) in the series on HSV-2 virus (MS strain) [1] (read-out: EC50-HSV2-FBS) was 7.49; in the series with HSV-2 virus (MS strain) [2] it was 7.84. Besides, the pIC50 at hCAII (setting [5]) is not above 4.60.

In the case of `NS(=O)(=O)c1cc2c(cc1F)C[C@H](C(F)F)N2C(=O)[C@@H]1Cc2ccc(-c3ccccn3)cc2C1` [Example 127, (R)-2-(difluoromethyl)-5-fluoro-1-((R)-5-(pyridin-2-yl)-2,3-dihydro-1H-indene-2-carbonyl)indoline-6-sulfonamide], in series [3], the “Predicted human hepatic clearance” value was 5.67 mL/min/kg. Also, the negative-log EC50 (pEC50) in the series with HSV-2 virus (MS strain) [1] (setting [6]) is 5.26; with HSV-2 virus (MS strain) [1] (read-out: EC50-HSV2-FBS), 6.26; in the series on HSV-2 virus (MS strain) [2], 7.23. The pIC50 at hCAII (setting [5]) was 5.61; on hCAI (setting [7]), 5.38.

Take `C[C@@H]1Cc2cc(F)c(S(N)(=O)=O)cc2N1C(=O)[C@H]1Cc2cc(-c3ccccn3)ccc2O1` [Example 44]: in series [3], the “Predicted human hepatic clearance” value is 0.83 mL/min/kg. Besides, the pEC50 in the series on HSV-2 virus (MS strain) [1] (setting [6]) is 6.49; with HSV-2 virus (MS strain) [1] (read-out: EC50-HSV2-FBS) it was 7.85; with HSV-2 virus (MS strain) [2], 9.00. In series [4], the 50% cytotoxic concentration (CC50) at 5 days was not below 10000 nM.

As to `NS(=O)(=O)c1ccc2c(c1)N(C(=O)[C@@H]1Cc3ccc(-c4ccccn4)cc3C1)CC2` [Example 81, (R)-1-(5-(pyridin-2-yl)-2,3-dihydro-1H-indene-2-carbonyl)indoline-6-sulfonamide], the “Predicted human hepatic clearance” value in series [3] is 2.33 mL/min/kg. Also, the values for the negative logarithm of the EC50 (pEC50) in the series with HSV-2 virus (MS strain) [1] (setting [6]), in the series with HSV-2 virus (MS strain) [1] (read-out: EC50-HSV2-FBS) and in the series with HSV-2 virus (MS strain) [2] were not above 4.60, 7.70 and 8.72, respectively. Also, the cytotoxic concentration (CC50) at 5 days in series [4] was not below 50000 nM. Moreover, the negative logarithm of the IC50 (pIC50) on hCAII (setting [5]) was not above 4.60.

As for `C[C@H]1c2ccc(-c3ccccn3)cc2C[C@@H]1C(=O)N1CCc2ccc(S(N)(=O)=O)cc21` [Example 94, 1-((1R,2S)-1-methyl-5-(pyridin-2-yl)-2,3-dihydro-1H-indene-2-carbonyl)indoline-6-sulfonamide], the pEC50 is 6.71 with HSV-2 virus (MS strain) [1] (setting [6]), 7.31 with HSV-2 virus (MS strain) [1] (read-out: EC50-HSV2-FBS) and 8.41 with HSV-2 virus (MS strain) [2]. Further, the cytotoxic concentration (CC50) at 5 days in series [4] is not below 50000 nM. In addition, the pIC50 on hCAII (setting [5]) is not above 4.30.

With `C[C@@H]1Cc2ccc(S(N)(=O)=O)cc2N1C(=O)[C@@H]1Cc2ccc(-c3ccccn3)cc2C1` [Example 15], in series [3], the “Predicted human hepatic clearance” value is 0.933 mL/min/kg. Moreover, the negative logarithm of the EC50 (pEC50) with HSV-2 virus (MS strain) [1] (setting [6]) was 6.56; in the series with HSV-2 virus (MS strain) [1] (read-out: EC50-HSV2-FBS), 7.55; in the series on HSV-2 virus (MS strain) [2], 8.31. Besides, the CC50 at 5 days in series [4] was not below 50000 nM.

Turning to `NS(=O)(=O)c1ccc2c(c1)N(C(=O)C1Cc3ccc(-c4cnccn4)cc3C1)CC2` (stereo not shown) [Example 74], the pEC50 in the series on HSV-2 virus (MS strain) [1] (setting [6]) is 4.93; in the series with HSV-2 virus (MS strain) [1] (read-out: EC50-HSV2-FBS) it was 7.23; in the series on HSV-2 virus (MS strain) [2], 8.08. Further, the pIC50 at hCAII (setting [5]) is not above 4.60.

Take `NS(=O)(=O)c1cc2c(cc1F)CCN2C(=O)[C@@H]1Cc2ccc(-c3ccccn3)cc2O1` [Example 65, (S)-5-fluoro-1-(6-(pyridin-2-yl)-2,3-dihydrobenzofuran-2-carbonyl)indoline-6-sulfonamide]: the “Predicted human hepatic clearance” value in series [3] is 0.83 mL/min/kg. Further, the negative logarithm of the EC50 (pEC50) is 6.83 in the series with HSV-2 virus (MS strain) [1] (setting [6]), 7.80 with HSV-2 virus (MS strain) [1] (read-out: EC50-HSV2-FBS) and 8.85 in the series on HSV-2 virus (MS strain) [2]. Besides, the CC50 at 5 days in series [4] is not below 10000 nM.

With `C[C@@H]1Cc2cc(F)c(S(N)(=O)=O)cc2N1C(=O)[C@@H]1Cc2ccc(-c3ccccn3)cc2C1` [Example 35], the “Predicted human hepatic clearance” value in series [3] is 0.917 mL/min/kg. Further, the negative-log EC50 (pEC50) in the series with HSV-2 virus (MS strain) [1] (setting [6]) was 7.24; with HSV-2 virus (MS strain) [1] (read-out: EC50-HSV2-FBS) it was 8.15; with HSV-2 virus (MS strain) [2] it was 8.96. Besides, the CC50 at 5 days in series [4] is 24000 nM.

`NS(=O)(=O)c1cc2c(cc1F)C[C@@H](CF)N2C(=O)[C@@H]1Cc2ccc(-c3ccccn3)cc2C1` [Example 125, (S)-5-fluoro-2-(fluoromethyl)-1-((R)-5-(pyridin-2-yl)-2,3-dihydro-1H-indene-2-carbonyl)indoline-6-sulfonamide]: the “Predicted human hepatic clearance” value in series [3] was 1.03 mL/min/kg. The figures for the pEC50 in the series with HSV-2 virus (MS strain) [1] (setting [6]), in the series on HSV-2 virus (MS strain) [1] (read-out: EC50-HSV2-FBS) and in the series on HSV-2 virus (MS strain) [2] were 7.15, 7.95 and 9.25, respectively.

`C[C@H]1c2ccc(-c3ccccn3)cc2C[C@@H]1C(=O)N1CCc2cc(F)c(S(N)(=O)=O)cc21` [Example 97, 5-fluoro-1-((1R,2S)-1-methyl-5-(pyridin-2-yl)-2,3-dihydro-1H-indene-2-carbonyl)indoline-6-sulfonamide]: the negative logarithm of the EC50 (pEC50) in the series with HSV-2 virus (MS strain) [1] (setting [6]) is 7.25; in the series with HSV-2 virus (MS strain) [1] (read-out: EC50-HSV2-FBS), 7.85; in the series on HSV-2 virus (MS strain) [2], 8.89. The CC50 at 5 days in series [4] was not below 50000 nM. Moreover, the pIC50 against hCAII and at hCAI was not above 4.30 throughout.

Turning to `NS(=O)(=O)c1ccc2c(c1)N(C(=O)C1Cc3ccc(-c4nccnc4F)cc3C1)CC2` (stereo not shown) [Example 73], the negative logarithm of the EC50 (pEC50) is 5.22 in the series with HSV-2 virus (MS strain) [1] (setting [6]), 6.89 in the series on HSV-2 virus (MS strain) [1] (read-out: EC50-HSV2-FBS) and 7.76 in the series with HSV-2 virus (MS strain) [2]. The pIC50 at hCAII (setting [5]) is not above 4.60.

With `NS(=O)(=O)c1ccc2c(c1)N(C(=O)C1Cc3ccc(-c4ncccc4F)cc3C1)CC2` (stereo not shown) [Example 76], the figures for the negative-log EC50 (pEC50) in the series on HSV-2 virus (MS strain) [1] (read-out: EC50-HSV2-FBS) and with HSV-2 virus (MS strain) [2] were 6.97 and 7.66, respectively. The 50% cytotoxic concentration (CC50) at 5 days in series [4] stood at 2500 nM. In addition, the pIC50 on hCAII (setting [5]) is not above 4.60.

`NS(=O)(=O)c1cc2c(cc1Cl)CCN2C(=O)C1Cc2ccc(-c3ccccn3)cc2C1` (stereo not shown) [Example 5]: the pEC50 in the series on HSV-2 virus (MS strain) [1] (setting [6]) was not above 4.60; in the series with HSV-2 virus (MS strain) [1] (read-out: EC50-HSV2-FBS), 7.46; with HSV-2 virus (MS strain) [2], 7.96. For the same compound, the negative logarithm of the IC50 (pIC50) at hCAII (setting [5]) was not above 4.60.

As for `C[C@H]1c2ccc(-c3ccccn3)cc2C[C@@H]1C(=O)N1C[C@@H](C(F)(F)F)c2cc(F)c(S(N)(=O)=O)cc21` [Example 138, (S)-5-fluoro-1-((1R,2S)-1-methyl-5-(pyridin-2-yl)-2,3-dihydro-1H-indene-2-carbonyl)-3-(trifluoromethyl)indoline-6-sulfonamide], the “Predicted human hepatic clearance” value in series [3] is 1 mL/min/kg. Besides, the pEC50 in the series on HSV-2 virus (MS strain) [1] (setting [6]) is 6.74; with HSV-2 virus (MS strain) [1] (read-out: EC50-HSV2-FBS), 7.63; with HSV-2 virus (MS strain) [2], 8.70.

With `NS(=O)(=O)c1cc2c(cc1F)C[C@@H](C(F)F)N2C(=O)[C@@H]1Cc2ccc(-c3ccccn3)cc2C1` [Example 128, (S)-2-(difluoromethyl)-5-fluoro-1-((R)-5-(pyridin-2-yl)-2,3-dihydro-1H-indene-2-carbonyl)indoline-6-sulfonamide], the “Predicted human hepatic clearance” value in series [3] is 3.5 mL/min/kg. In addition, the pEC50 in the series with HSV-2 virus (MS strain) [1] (setting [6]) is 7.20; in the series with HSV-2 virus (MS strain) [1] (read-out: EC50-HSV2-FBS) it was 8.08; in the series on HSV-2 virus (MS strain) [2] it was 8.85. Besides, the negative logarithm of the IC50 (pIC50) at hCAII (setting [5]) is 5.13; on hCAI (setting [7]), not above 4.30.
